Results taken from patent US7601736B2, “Pyridine derivatives, a process for their preparation and a pharmaceutical composition containing the same” (SK Chemicals Co., Ltd., priority 2003, dated 2009).

Test system: TNF-α
Assay: Cytokine inhibitory activity in cells: LPS-induced TNF-α in RAW 264.7
Type: cell-based, murine
Settings: for inhibition at 1 µM / inhibition at 10 µM / inhibition at 100 µM / inhibition at 1000 µM: Mus musculus, RAW264.7, read-out: TNF-α Inhibition Rate (%); for inhibition at 1 µM / inhibition at 10 µM / inhibition at 100 µM / inhibition at 1000 µM / TNF-α Inhibition Rate (%): RAW 264.7, LPS 1 μg/mL; for inhibitory activity in RAW 264.7 cell line on the production of TNF-α, in words: compared to the control compounds
Protocol: General reagents used were purchased from Sigma-Aldrich chem. Co. and cytokine inhibitory activities were tested as follows. Mediums and reagents used in cell culture were purchased from GIBCO BRL (USA), and mouse TNF-α ELISA kit was purchased from R&D system (USA). The apparatus used ELISA reader (Spectra max-Plus 384, Molecular Device, USA).
Murine macrophage cell line RAW 264.7 was kindly provided by Korean Tissue Culture Center (KTCC). The cell line was cultured in DMEM medium containing 10% FBS, in a cell culturing device at the condition of 37° C., 5% CO2. First, murine RAW 264.7 was cultured in DMEM medium containing 10% FBS for about 24 hours, and cells were planted 200 μL each in 96 well plates at the concentration of 5×10^5/mL and cultured for about 24 hours. Then, test compounds were treated at various concentrations and then reacted at 37° C. for about 1 hour, wherein 1 μg/mL of lipopolysaccharide (LPS) was added thereto and reacted at 37° C. for about 12 hours. The supernatant was recovered and the amount of murine TNF-α on the medium was quantitated using ELISA kit. Thalidomide was respectively used as a positive and a negative control to compare the activities and the results are shown in the following tables 4a -4c.

Compound | inhibition at 1 µM (test conc. 1 μM) [%] | inhibition at 10 µM (test conc. 10 μM) [%] | inhibition at 100 µM (test conc. 100 μM) [%] | inhibition at 1000 µM (test conc. 1 mM) [%] | inhibitory activity in RAW 264.7 cell line on the production of TNF-α, in words | TNF-α Inhibition Rate (%) (test conc. 1 μM) | TNF-α Inhibition Rate (%) (test conc. 10 μM) | TNF-α Inhibition Rate (%) (test conc. 100 μM) | TNF-α Inhibition Rate (%) (test conc. 1 mM)
Cc1cc2c(c(NCc3ccccc3)n1)C(=O)OCC2 [Ex. 51, 8-benzylamino-6-methyl-3,4-dihydro-pyrano[3,4-c]pyridine-1-on] | 9 | 15 | 21 | 30 | – | – | – | – | –
Cc1cc2c(c(-c3ccc(Cl)cc3)n1)C(=O)OCC2 [Ex. 31, 8-(4-chloro-phenyl)-6-methyl-3,4-dihydro-pyrano[3,4-c]pyridine-1-on] | 100 | 100 | 100 | 100 | superiorities over to the control compounds | – | – | – | –
Cc1cc2c(c(Cl)n1)C(=O)OCC2 [Ex. 20, 8-chloro-6-methyl-3,4-dihydro-pyrano[3,4-c]pyridine-1-on] | 15 | 21 | 31 | 41 | – | – | – | – | –
COc1nc(C)cc2c1C(=O)OCC2 [Ex. 22, 8-methoxy-6-methyl-3,4-dihydro-pyrano[3,4-c]pyridine-1-on] | – | 10 | 17 | 30 | – | – | – | – | –
Cc1cc2c(c(-c3ccccc3)n1)C(=O)OCC2 [Ex. 46, 6-methyl-8-phenyl-3,4-dihydro-pyrano[3,4-c]pyridine-1-on] | 3 | 9 | 19 | 29 | – | – | – | – | –
Cc1cc2c(c(-c3ccccn3)n1)C(=O)OCC2 [Ex. 29, 6-methyl-8-pyridine-2-yl-3,4-dihydro-pyrano[3,4-c]pyridine-1-on] | 10 | 15 | 18 | 30 | – | – | – | – | –
O=C1OCCc2cc(-c3ccccc3)nc(Cl)c21 [Ex. 73, 8-chloro-6-phenyl-3,4-dihydro-pyrano[3,4-c]pyridine-1-on] | 56 | 63 | 72 | 80 | – | – | – | – | –
Cc1nc(-c2ccco2)cc2c1C(=O)OCC2 [Ex. 98, 6-(furan-2-yl)-8-methyl-3,4-dihydro-pyrano[3,4-c]pyridine-1-on] | 56 | 64 | 72 | 87 | – | – | – | – | –
Cc1nc(-c2ccc3c(c2)OCO3)cc2c1C(=O)OCC2 [Ex. 99, 6-(benzo[d][1,3]dioxol-6-yl)-8methyl-3,4-dihydro-pyrano[3,4c]pyridine-1-on] | – | – | – | – | – | 9 | 19 | 22 | 35
Cc1cc2c(c(Oc3ccccc3)n1)C(=O)OCC2 [Ex. 50, 6-methyl-8-phenoxy-3,4-dihydro-pyrano[3,4-c]pyridine-1-on] | 5 | 9 | 19 | 25 | – | – | – | – | –
Cc1cc2c(c(-c3ccco3)n1)C(=O)OCC2 [Ex. 27, 6-methyl-8-furan-2-yl-3,4-dihydro-pyrano[3,4-c]pyridine-1-on] | 30 | 43 | 68 | 81 | – | – | – | – | –
O=C1NCCc2ccncc21 [Ex. 116, 3,4-dihydro-2H-[2,7]naphtyridine-1-on] | – | – | – | – | – | – | 10 | 18 | 29
Cc1nc(-c2ccc(N(C)C)cc2)cc2c1C(=O)OCC2 [Ex. 100, 6-(4-(dimethylamino)phenyl)-8-methyl-3,4-dihydro-pyrano[3,4-c]pyridine-1-on] | – | 9 | 18 | 29 | – | – | – | – | –
Cc1ncc2c(c1-c1ccccc1)CCOC2=O [Ex. 62, 6-methyl-5-phenyl-3,4-dihydro-pyrano[3,4-c]pyridine-1-on] | 60 | 78 | 89 | 100 | superiorities over to the control compounds | – | – | – | –
Cc1ccc(Nc2nc(C)cc3c2C(=O)OCC3)cc1 [Ex. 39, 6-methyl-8-p-tolylamino-3,4-dihydro-pyrano[3,4-c]pyridine-1-on] | 9 | 22 | 31 | 40 | – | – | – | – | –
Cc1cc2c(c(-c3cccs3)n1)C(=O)OCC2 [Ex. 28, 6-methyl-8-thiophene-2-yl-3,4-dihydro-pyrano[3,4-c]pyridine-1-on] | 8 | 27 | 37 | 59 | – | – | – | – | –
O=C1NC(c2ccccc2)Cc2ccncc21 (stereo not drawn) [Ex. 120b, 3-phenyl-3,4-dihydro-2H-[2,7]naphtyridine-1-on] | – | – | – | – | – | 26 | 30 | 32 | 42
Cc1nc(O)c2c(c1-c1ccccc1)CCOC2=O [Ex. 60, 8-hydroxy-6-methyl-5-phenyl-3,4-dihydro-pyrano[3,4-c]pyridine-1-on] | 39 | 48 | 56 | 78 | – | – | – | – | –
O=C1OC(c2ccccc2)Cc2ccncc21 (stereo not drawn) [Ex. 120a, 3-phenyl-3,4-dihydro-pyrano[3,4-c]pyridine-1-on] | 43 | 54 | 66 | 85 | – | – | – | – | –
S=C1OCCc2ccncc21 [Ex. 113, 3,4-dihydro-pyrano[3,4-c]pyridine-1-thione] | 10 | 19 | 28 | 42 | – | – | – | – | –
O=C1OCCc2c1cnc1ccccc21 [Ex. 112, 3,4-dihydro-2-oxa-9-aza-phenanthrene-1-on] | 24 | 28 | 33 | 35 | – | – | – | – | –
Cc1cc2c(c(Nc3ccc(F)cc3)n1)C(=O)OCC2 [Ex. 35, 8-(4-fluoro-phenylamino)-6-methyl-3,4-dihydro-pyrano[3,4-c]pyridine-1-on] | 9 | 17 | 26 | 32 | – | – | – | – | –
Cc1nc(Cl)cc2c1C(=O)OCC2 [Ex. 96, 6-chloro-8-methyl-3,4-dihydro-pyrano[3,4-c]pyridine-1-on] | 38 | 46 | 56 | 63 | – | – | – | – | –
Cc1cc2c(c(N3CCN(C)CC3)n1)C(=O)OCC2 [Ex. 34, 6-methyl-8-(4-methyl-piperazine-1-yl)-3,4-dihydro-pyrano[3,4-c]pyridine-1-on] | 58 | 62 | 70 | 80 | – | – | – | – | –
O=C1OCCc2cc(-c3ccccc3)ncc21 [Ex. 68, 6-phenyl-3,4-dihydro-pyrano[3,4-c]pyridine-1-on] | 50 | 58 | 65 | 76 | – | – | – | – | –
Cc1nc(Cl)c2c(c1-c1ccccc1)CCOC2=O [Ex. 61, 8-chloro-6-methyl-5-phenyl-3,4-dihydro-pyrano[3,4-c]pyridine-1-on] | 87 | 100 | 100 | 100 | superiorities over to the control compounds | – | – | – | –
Cc1cc2c(c(Nc3ccc(Cl)cc3)n1)C(=O)OCC2 [Ex. 37, 8-(4-chloro-phenylamino)-6-methyl-3,4-dihydro-pyrano[3,4-c]pyridine-1-on] | 54 | 69 | 78 | 89 | – | – | – | – | –
Cc1cc2c(c(C)n1)C(=O)OCC2 [Ex. 26, 6,8-dimethyl-3,4-dihydro-pyrano[3,4-c]pyridine-1-on] | – | 6 | 17 | 28 | – | – | – | – | –
Cc1nc(-c2cccs2)cc2c1C(=O)OCC2 [Ex. 97, 8-methyl-6-(thiophene-2-yl)-3,4-dihydro-pyrano[3,4-c]pyridine-1-on] | 75 | 84 | 93 | 100 | superiorities over to the control compounds | – | – | – | –
O=C1CCC(N2C(=O)c3ccccc3C2=O)C(=O)N1 (stereo not drawn) [Thalidomide, reference compound] | 8 | 12 | 20 | 21 | – | – | – | – | –
